# What was measured:
# Vasopressin V2 receptor = Vasopressin V2 receptor (Rattus norvegicus, UniProt Q00788)
# Vasopressin V1b receptor = biological target: T1, Vasopressin V1b receptor (Homo sapiens, UniProt P47901)
# T1 sequence (P47901 whole entry): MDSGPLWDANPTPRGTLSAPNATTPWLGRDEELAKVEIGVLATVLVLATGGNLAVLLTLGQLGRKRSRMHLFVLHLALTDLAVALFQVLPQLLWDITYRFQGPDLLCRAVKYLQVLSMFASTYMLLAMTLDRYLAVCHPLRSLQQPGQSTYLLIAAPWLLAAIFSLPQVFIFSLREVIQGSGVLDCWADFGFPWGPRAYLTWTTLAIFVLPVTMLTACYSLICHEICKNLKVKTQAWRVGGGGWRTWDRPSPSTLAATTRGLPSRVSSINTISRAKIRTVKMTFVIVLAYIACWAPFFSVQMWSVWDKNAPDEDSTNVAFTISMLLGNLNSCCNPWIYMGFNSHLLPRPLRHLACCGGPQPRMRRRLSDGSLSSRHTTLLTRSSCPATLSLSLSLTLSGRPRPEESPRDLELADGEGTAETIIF
# Vasopressin V1a receptor = Vasopressin V1a receptor (Rattus norvegicus, UniProt P30560)
# Chain of Vasopressin V1a receptor (P30560 whole entry): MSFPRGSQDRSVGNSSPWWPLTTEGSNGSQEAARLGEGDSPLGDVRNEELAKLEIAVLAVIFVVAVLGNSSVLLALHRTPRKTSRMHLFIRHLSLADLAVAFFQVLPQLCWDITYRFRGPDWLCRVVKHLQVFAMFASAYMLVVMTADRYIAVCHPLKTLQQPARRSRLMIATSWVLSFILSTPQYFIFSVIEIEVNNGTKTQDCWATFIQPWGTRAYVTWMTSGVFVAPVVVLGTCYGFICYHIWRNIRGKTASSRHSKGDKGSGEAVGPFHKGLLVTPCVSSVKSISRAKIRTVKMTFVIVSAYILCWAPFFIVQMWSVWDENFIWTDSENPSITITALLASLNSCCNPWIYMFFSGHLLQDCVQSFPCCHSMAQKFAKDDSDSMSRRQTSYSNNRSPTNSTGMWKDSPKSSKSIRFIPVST
# Chain of Vasopressin V2 receptor (Q00788 whole entry): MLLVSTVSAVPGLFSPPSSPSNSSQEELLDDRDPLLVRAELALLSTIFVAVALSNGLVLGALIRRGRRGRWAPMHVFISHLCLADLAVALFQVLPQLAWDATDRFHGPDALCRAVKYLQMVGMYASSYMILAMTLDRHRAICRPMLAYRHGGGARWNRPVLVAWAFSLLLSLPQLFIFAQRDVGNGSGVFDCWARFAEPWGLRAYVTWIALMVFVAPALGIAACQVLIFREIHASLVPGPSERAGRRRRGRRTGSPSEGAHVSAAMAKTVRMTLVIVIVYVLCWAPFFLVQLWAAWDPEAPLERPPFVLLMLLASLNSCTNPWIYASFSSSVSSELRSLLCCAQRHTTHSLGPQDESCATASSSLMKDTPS
Ki (Vasopressin V2 receptor),Ki (Vasopressin V1b receptor),Ki (Vasopressin V1a receptor),SMILES
1.33 nM,> 10 µM,325 nM,Cc1ccccc1C(=O)Nc1ccc(C(=O)N2CCCC(O)c3cc(Cl)ccc32)c(C)c1 (stereo not given)
,> 10 µM,524 nM,Cc1ccccc1C(=O)Nc1ccc(C(=O)N2CCCC(N(C)C)c3ccccc32)cc1 (stereo not given)

# Source: BindingDB's records for PubMed 9864265 (Second Tokushima Institute of New Drug Research, 1998)
